Where “and” joins values, the source holds several entries; their conditions need not be identical. Equal entries are not always repeated. One block for each compound: values may come before it.
Tests used:
mdr1a/b = assay: Pgp inhibition calcein assay in P388/dx cells; type: cell-based, murine; settings: for Emax Pgp inhibition: calcein assay, fold compared to untreated cells; for IC50: calcein efflux
Protocol: To investigate the potential Pgp inhibition by the rifamycins, the murine monocytic leukaemia cell line P388/dx (overexpressing the murine Pgp counterpart mdr1a/b (Boesch et al. [1991])) and the corresponding parental cell line P388 were used (kindly provided by Dr. D. Ballinari; Pharmacia & Upjohn, Milan, Italy). Cells were cultured under standard conditions with RPMI 1640 cell culture medium supplemented with FCS 10%, 2 mM glutamine, […] β-mercaptoethanol, 100 U/mL penicillin, and 100 µg/mL streptomycin sulphate. The culture medium of the P388/dx cell line was additionally supplemented with doxorubicin (final concentration: 0.45 µM) to maintain mdr1a/b expression. One day before the experiments, P388/dx cells were set to doxorubicin-free medium.
Pgp activity was determined using a calcein assay as described previously (Fröhlich et al. [2004]) with zosuquidar (10 µM) as a positive control.

CYP3A4 [1] = tested on: CYP3A4
Protocol: (§1) A random hexamer primer was used according to the manufacturer’s instructions. […] Experiments were performed in four independent biological replicates with technical duplicates (PCR runs) for each concentration.

[2] = cited from earlier work
CYP3A4 [3] = tested on: CYP3A4; remark: listed apart in the source
Protocol: To determine CYP3A4 activity in LS180 cells after rifamycin treatment, 20,000 cells per well were seeded into 96-well plates and allowed to grow for 3 days until 70% confluency. […] Cells were washed twice with PBS and then pre-incubated with PBS + 2% FCS for 30 min at 37 °C. PBS was removed and replaced by 50 µL of 3 µM luciferin-IPA (selective CYP3A4 substrate) and incubated for 60 min at 37 °C. After incubation, 25 µL supernatant from each well was transferred to a white 96-well plate and 25 µL detection reagent (containing luciferase) was added. Cells were subsequently incubated for 20 min at room temperature. […] CYP3A4 activity was normalized to untreated controls.

ABCB1 = ABCB1 mRNA expression in LS180 cells (real-time RT-PCR); type: cell-based, human; settings: for EC50 at 24 h / EC50 at 96 h / EC50 at 144 h: human, LS180 cells
Protocol: as §1

[4] = parameters: method as in Zhang et al. [2008]; settings: 300 mg rifabutin; ref Zhang et al. [2008]; cited from earlier work
P388 cells = assay: Calcein assay in parental P388 cells; type: cell-based, murine
CYP3A4 [5] = target: CYP3A4 (Homo sapiens, UniProt P08684); settings: microsomes
Sequence of CYP3A4 (Homo sapiens, UniProt P08684) (P08684 whole entry): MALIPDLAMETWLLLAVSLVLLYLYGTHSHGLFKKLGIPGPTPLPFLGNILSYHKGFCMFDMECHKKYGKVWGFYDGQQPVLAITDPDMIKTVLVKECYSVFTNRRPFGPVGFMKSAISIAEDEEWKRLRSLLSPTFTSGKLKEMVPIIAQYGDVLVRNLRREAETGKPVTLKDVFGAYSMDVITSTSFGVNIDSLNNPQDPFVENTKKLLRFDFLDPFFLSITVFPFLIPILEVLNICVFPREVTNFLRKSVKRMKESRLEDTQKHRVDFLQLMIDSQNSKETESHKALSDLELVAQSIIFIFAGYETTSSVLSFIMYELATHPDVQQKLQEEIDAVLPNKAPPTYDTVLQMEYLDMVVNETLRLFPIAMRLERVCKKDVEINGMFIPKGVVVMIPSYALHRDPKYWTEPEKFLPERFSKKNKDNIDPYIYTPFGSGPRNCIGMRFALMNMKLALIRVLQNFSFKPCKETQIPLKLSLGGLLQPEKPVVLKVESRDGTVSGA
Protocol: For this purpose, rifamycins were tested between 0.5 to 50 µM. […] A reaction mixture without CYP3A4 was incubated as negative control. Luminescence signals were normalized to the untreated cell control.

LS180 cells = type: in vitro ADME; settings: human
Protocol: The UPLC-MS/MS system consisted of a triple stage quadrupole mass spectrometer (Waters Xevo TQ-S, Milford, MA, USA) and an Acquity Classic UPLC® (Waters). Mass spectrometric analysis was performed by selective reaction monitoring using positive electrospray ionization. […] Because of their considerable molecular size, rifamycins were chromatographically separated on a Waters Peptide BEH C18 Column (300 Å, 1.7 μm, 2.1 mm × 50 mm) to foster optimal mass transfer kinetics. The mobile phase was composed of H20/ACN (95/5, v/v) + 0.1% FA (eluent A) and ACN + 0.1% FA (eluent B). […] The total run time was 4 min, and the column was heated to 60 °C. The injection volume was set to 20 μL with a flow rate of 0.5 mL/min. A pellet of untreated LS180 cells (500,000 cells/sample) was used for calibration standards and QC standard. […] Subsequently, proteins were precipitated with 110 μL ACN (uptake samples) or 100 μL ACN (calibration standards and QC standards). […] To determine intracellular rifamycin concentrations, measured compound concentrations were normalized to the total pellet volume. This was achieved by multiplying the measured mean cellular volume of a LS180 cell (CASY cell counter, Schärfe System, Reutlingen, Germany) by the mean cell number of four wells of an identically prepared and treated cell culture plate.

Pgp = assay: Induction of Pgp activity in LS180 cells (rhodamine123 efflux, flow cytometry); type: cell-based, human; settings: LS180, 144 h exposure; for Emax Pgp activity (activation): fold compared to untreated cells; for EC50 at 144 h: human, LS180 cells, probe rhodamine123 (0.4 µM), with zosuquidar (10 µM), rhodamine123 efflux, read-out: EC50 Pgp activity (activation)
Protocol: To assess the induction of Pgp activity, 200,000 LS180 cells per well were seeded in a 6-well plate, cultured for 3 days and subsequently exposed to rifamycins for 144 h. After treatment, cells were harvested and subjected to the rhodamine efflux assay as described previously (Theile et al. [2013]; Weiss et al. [2008]). Briefly, cells were incubated with the fluorescent Pgp substrate rhodamine123 (0.4 µM) on a rotary shaker for 30 min at 37 °C under protection from light. Subsequently, cells were incubated with the selective Pgp inhibitor zosuquidar (10 µM) for 50 min at 37 °C on a rotary shaker. Medium without zosuquidar was used as a negative control. All washing steps were performed with ice-cold PBS at 4 °C. Intracellular rhodamine123 fluorescence was determined using a flow cytometer (MACSQuant analyzer 10, Miltenyi Biotec, Bergisch Gladbach, Germany). Thirty thousand cells were used for the analysis. For data evaluation, the ratio of zosuquidar-inhibited samples to non-inhibited samples of the rifamycin experiment was calculated and normalized to the ratio of untreated cell controls (no rifamycin treatment).

[6] = LS180, 24 h, fold induction compared to untreated cells
[7] = LS180, 96 h, fold induction compared to untreated cells
[8] = LS180, 144 h, fold induction compared to untreated cells
[9] = LS180, 24 h, extracellular concentration
[10] = LS180, 24 h (24*), intracellular concentrations

SMILES: CO[C@H]1/C=C/O[C@@]2(C)Oc3c(C)c(O)c4c(c3C2=O)C2=NC3(CCN(CC(C)C)CC3)NC2=C(NC(=O)/C(C)=C\C=C\[C@H](C)[C@H](O)[C@@H](C)[C@@H](O)[C@@H](C)[C@H](OC(C)=O)[C@@H]1C)C4=O [Rifabutin]
Emax Pgp inhibition (mdr1a/b): 4.9 ± 1.3 fold
IC50 (mdr1a/b): 320 ± 100 nM
IC50 (mdr1a/b; listed as rifabutin): 300 nM
increase of CYP3A4 mRNA levels (CYP3A4 [1]): twofold
effect on dabigatran etexilate kinetics ([2]; 300 mg rifabutin, ref Lutz et al., CPT [2018b]): not affected
reduction of bioavailability of doravirine ([2]; repeated administration of 300 mg rifabutin, ref Khalilieh et al. [2018]): 50%
reduction of bioavailability of indinavir ([2]; repeated administration of 300 mg rifabutin, ref Kraft et al. [2004]): 34%
concentration dependence of CYP3A4 activity (CYP3A4 [3]): no concentration dependence
increase in CYP3A4 activity after exposure (CYP3A4 [3]): no detectable increase
Emax ABCB1 mRNA expression (ABCB1; [6]): 1.4 ± 0.024 fold
Emax ABCB1 mRNA expression (ABCB1; [7]): 2.8 ± 0.16 fold
Emax ABCB1 mRNA expression (ABCB1; [8]): 4.5 ± 0.71 fold
EC50 at 24 h (ABCB1; [9]): 1100 ± 27 nM
EC50 at 96 h (ABCB1; LS180, 96 h): 1800 ± 1100 nM
EC50 at 144 h (ABCB1; LS180, 144 h): 1500 ± 720 nM
expected drug concentration in the gut lumen [4]: approx. 1.4 mM
intracellular calcein fluorescence (P388 cells): remained unchanged
lowering of CYP3A4 activity (CYP3A4 [5]; human): approx. 80%
time to reach intracellular concentration equilibrium (LS180 cells): 6 h
molar metabolite-to-parent ratio (25-O-deacetyl metabolite) (LS180 cells; 10 µM): 0.002 to 0.006
Emax Pgp activity (activation) (Pgp): 2.8 ± 0.48 fold
EC50 at 144 h (Pgp): 1100 ± 160 nM

SMILES: CO[C@H]1/C=C/O[C@@]2(C)Oc3c(C)c(O)c4c(O)c(c(/C=N/N5CCN(C)CC5)c(O)c4c3C2=O)NC(=O)/C(C)=C\C=C\[C@H](C)[C@H](O)[C@@H](C)[C@@H](O)[C@@H](C)[C@H](OC(C)=O)[C@@H]1C [Rifampicin]
Emax Pgp inhibition (mdr1a/b): 4.3 ± 0.53 fold
IC50 (mdr1a/b): 13000 ± 4100 nM
IC50 (mdr1a/b; listed as rifampicin): 12900 nM
lowering of exposure to indinavir ([2]; repetitive administration of 600 mg standard dose of rifampicin, ref Avihingsanon et al. [2012]): approx. 90%
lowering of exposure to doravirine ([2]; repetitive administration of 600 mg standard dose of rifampicin, ref Yee et al. [2017]): approx. 90%
EC50 (ABCB1; [10]): 37000 ± 2000 nM
Emax ABCB1 mRNA expression (ABCB1; LS180, 24 h (24*), intracellular concentrations, compared to untreated): 2.6 fold and 2.6 ± 0.068 fold
Emax ABCB1 mRNA expression (ABCB1; [6]): 2.6 ± 0.068 fold
Emax ABCB1 mRNA expression (ABCB1; [7]): 5.1 ± 0.12 fold
Emax ABCB1 mRNA expression (ABCB1; [8]): 7.0 ± 0.53 fold
EC50 at 24 h (ABCB1; [10]): 37400 nM
EC50 at 24 h (ABCB1; [9]): 8600 ± 470 nM
EC50 at 96 h (ABCB1; LS180, 96 h): 1100 ± 56 nM
EC50 at 144 h (ABCB1; LS180, 144 h): 1000 ± 65 nM
intracellular calcein fluorescence (P388 cells): remained unchanged
Emax Pgp activity (activation) (Pgp): 3.2 ± 0.37 fold
EC50 at 144 h (Pgp): 1000 ± 1.4 nM

effect on CYP3A4 activity (CYP3A4 [5]): no effect
SMILES: CN(C)C(=N)N=C(N)N [metformin]

Reference: paper PMC10322781 (Archives of Toxicology, 2023)
